Assay results reported in patent US8293784B2, “α-amino acid derivatives for improving solubility” (Merck Patent GmbH, priority 2007, dated 2012).
In brackets after ≈: the same amount, converted by molar mass. Read-outs that look alike come from different tables or passages of the source.

Key:
[1] = Solubility of PBSA in aqueous solubiliser solutions, dissolved fraction determined by HPLC; type: physicochemical; conditions: thermodynamic from solid, filtered
Experimental: Firstly, 4% aqueous solutions of ectoine, creatinine and pyrrolidonecarboxylic acid are prepared. The active compound PBSA is subsequently dispersed in the solution in excess. The pH of the suspension is adjusted to 4.6. Undissolved active compound is filtered off after stirring for 1 hour. The dissolved active-compound fraction is determined by high-performance liquid chromatography. The experiment without solubiliser serves as comparison. In the case of dissolution of PBSA in aqueous creatinine solution, the solubility is additionally determined at pH 5.7, i.e. in this case the pH is not restored to 4.6.

[2] = Visual assessment of the increase in solubility due to ectoine (clear vs cloudy solution); type: physicochemical; conditions: active compound incorporated at 1% (tiliroside) or 1.5% (5,7-dihydroxy-2-methylchromone)
Experimental: Firstly, 4% ectoine solutions are prepared in water and in a water/ethanol mixture (3:1). The active compound to be dissolved is subsequently incorporated into the two ectoine solutions in an amount of 1% and 1.5% respectively. The respective ectoine-free batches serve as comparison.

[3] = 4% of ectoine in ethanol/water 3:1
[4] = Ethanol/water 3:1, no ectoine (comparison)

Row | Appearance of solution (visual solubility assessment) [2, 3] | Appearance of solution (visual solubility assessment) [2, 4] | SMILES | solubility at 1 h ([1]; 4% aqueous creatinine solution, pH 4.6, aqueous with cosolvent or surfactant or cyclodextrin, pH of the dispersion set to 4.6, stirred 1 hour, read-out: Solubility of PBSA in water comprising 4% of creatinine) [µg/mL] | solubility at 1 h ([1]; 4% aqueous creatinine solution, pH 5.7, aqueous with cosolvent or surfactant or cyclodextrin, pH of the dispersion 5.7 (pH not restored to 4.6), stirred 1 hour, read-out: Solubility of PBSA in water comprising 4% of creatinine) [µg/mL] | solubility at 1 h ([1]; 4% aqueous ectoine solution, pH 4.6, aqueous with cosolvent or surfactant or cyclodextrin, pH of the dispersion set to 4.6, stirred 1 hour, read-out: Solubility of PBSA in water comprising 4% of ectoine) [µg/mL] | solubility at 1 h ([1]; 4% aqueous pyrrolidonecarboxylic acid solution, pH 4.6, aqueous with cosolvent or surfactant or cyclodextrin, pH of the dispersion set to 4.6, stirred 1 hour, read-out: Solubility of PBSA in water comprising 4% of pyrrolidonecarboxylic acid) [µg/mL] | solubility at 1 h ([1]; water without solubiliser, pH 4.6, aqueous buffer, no solubiliser, pH of the dispersion set to 4.6, stirred 1 hour, read-out: Solubility of PBSA in water) [µg/mL]
1 | – | – | O=S(=O)(O)c1ccc2[nH]c(-c3ccccc3)nc2c1 [PBSA, 2-phenylbenzimidazole-5-sulfonic acid] | 940 (≈ 3430 µM) | 8500 (≈ 31000 µM) | 600 (≈ 2190 µM) | 340 (≈ 1240 µM) | 340 (≈ 1240 µM)
2 | clear solution | cloudy solution | O=C(/C=C/c1ccc(O)cc1)OC[C@H]1O[C@@H](Oc2c(-c3ccc(O)cc3)oc3cc(O)cc(O)c3c2=O)[C@H](O)[C@@H](O)[C@@H]1O [Tiliroside, tiliroside] | – | – | – | – | –
3 | clear solution | cloudy solution | Cc1cc(=O)c2c(O)cc(O)cc2o1 [5,7-Dihydroxy-2-methyl-chromone, 5,7-dihydroxy-2-methylchromone] | – | – | – | – | –
